Measurements published in PMC9180903, “Substituted Syndecan-2-Derived Mimetic Peptides Show Improved Antitumor Activity over the Parent Syndecan-2-Derived Peptide” (International Journal of Molecular Sciences, 2022).
Ends that are not written are not given here.

T1: pro-domain of MMP-7 (PDMMP-7) (Homo sapiens, UniProt P09237)
T1 construct: TRX-His tag (N, cleaved yes); made in house
T1 sequence (P09237 18-94 limits assumed): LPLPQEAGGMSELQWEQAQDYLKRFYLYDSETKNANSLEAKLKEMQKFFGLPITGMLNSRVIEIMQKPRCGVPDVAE

T2: pro-domain of matrix metalloproteinase-7 (MMP-7)
T2 sequence (P09237 whole entry, species assumed, looked up): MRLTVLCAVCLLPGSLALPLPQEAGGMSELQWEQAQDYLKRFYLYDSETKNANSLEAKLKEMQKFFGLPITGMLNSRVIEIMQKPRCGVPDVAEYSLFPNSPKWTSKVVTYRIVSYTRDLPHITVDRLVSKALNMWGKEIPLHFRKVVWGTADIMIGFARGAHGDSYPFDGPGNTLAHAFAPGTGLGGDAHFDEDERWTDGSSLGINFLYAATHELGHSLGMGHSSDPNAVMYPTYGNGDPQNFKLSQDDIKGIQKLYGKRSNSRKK


Columns and labels:
[1] = molecular target: T1, pro-domain of MMP-7 (PDMMP-7); assay: Fluorescence titration of peptides against MMP-7 pro-domain; assay type: binding; conditions: fluorescence spectroscopy; for Kd: ex 280 nm, em 347 nm, 10 μM PDMMP-7, peptide titrated up to 1:80, PBS pH 7.4, 25 °C
Protocol: The gene encoding the pro-domain sequence (PDMMP-7) was cloned into the pET32a vector, which has a TRX-His tag at the N-terminus, for protein expression and purification. Between the TRX-His tag and the pro-domain, a TEV cleavage sequence was inserted. Proteins were overexpressed with 1 mM IPTG and isolated using Ni-NTA affinity chromatography. The purified TRX-His tag-PDMMP-7 was incubated with TEV protease at a 1:1 molar ratio for 12 h. The reaction mixture was further purified in phosphate-buffered saline (PBS) buffer at pH 7.4 using a HiLoad^TM superdex^TM 75 column (GE Healthcare, Little Chalfont, UK) to remove tags. The final protein sample was concentrated to 14 mg/mL for the fluorescence experiment.
The binding affinity between the PDMMP-7 and each synthetic peptide was measured at 298 K (25 °C) using an LS55 fluorescence spectrophotometer (Perkin Elmer, Waltham, MA, USA) at wavelengths of 280 nm (excitation) and 300–450 nm (emission). PDMMP-7 and peptides were prepared in phosphate-buffered saline (PBS) buffer at pH 7.4. The concentration of PDMMP-7 was set at 10 μM, and the input amount of each peptide versus PDMMP-7 was titrated at a molar ratio up to 1:80 using a thermostat cuvette. The dissociation constant (Kd) of the PDMMP-7/peptide complex was calculated using the equation log[(Fo − F)/F] = log(1/Kd) + nlog[ligand], where Fo and F represent the fluorescence intensity of PDMMP-7 at 347 nm in the absence and presence of the peptide, respectively, and n represents the number of binding sites.

HCT116 cells = assay: MTT assay; assay type: cell-based, human; conditions: 50 nM peptide
Protocol: (§1) Cell proliferation was measured by a colorimetric assay using 3-(4,5-dimethythiazol-2-yl) 2,5-diphenyltetrazolium bromide (MTT; Amresco, Solon, OH, USA) according to the manufacturer’s instructions. Briefly, cells were harvested with 0.05% trypsin/EDTA and seeded to 48-well plates (Thermo Fisher Scientific). After cells were allowed to attach to the plate for 24 h, medium containing 0.5 mg/mL MTT was added to each plate and incubation was continued for 1 h. The medium was then removed, and 200 μL of dimethyl sulfoxide (DMSO) was added to each plate for 30 min at room temperature. The mean concentration of absorbance at 570 nm in each set of samples was measured using a 96-well microtiter plate reader (Dynatech, Chantilly, VA, USA).

HT29-SDC2 cells = assay: MTT assay; assay type: cell-based, human; conditions: 50 nM, up to 48 h
Protocol: as §1

MMPs = system: MMPs; parameters: method as in PMID 29735645, PMID 9484924, PMID 10100701, PMID 12085177; conditions: batimastat phase I, marimastat phase III; cited from earlier work
[2] = molecular target: T2, pro-domain of matrix metalloproteinase-7 (MMP-7); assay: other fluorescence titration; intrinsic fluorescence of PDMMP-7 (10 μM; excitation 280 nm, emission 300-450 nm, read at 347 nm), peptide titrated up to a molar ratio of 1:80, PBS pH 7.4, 298 K (25 °C)

Row | Molecule | Kd [1] | Kd [2] | other results
1 | SGVYPIDDLDYASASGSGAD [S2-L, modified SDC2-mimetic peptide derived from S2-P] | – | – | binding to the MMP-7 pro-domain compared to S2-P ([1]; PBS pH 7.4, 25 °C): reduced binding
2 | SGVYPIDDFDYESASGSGAD [S2-FE] | 456 µM | – | cytotoxicity in HCT116 cells (HCT116 cells): did not exert cytotoxicity; cytotoxicity against HT29-SDC2 cells (HT29-SDC2 cells): Neither peptide showed cytotoxicity
3 | CNC(=O)[C@@H](NC(=O)[C@H](CC(C)C)[C@H](O)C(=O)NO)C(C)(C)C [marimastat] | – | – | side effects in clinical trials (MMPs): significant musculoskeletal toxicity
4 | SGVYPIDDDDYASASGSGAD [S2-P] | 1220 µM | – | –
5 | SGVYPIDDFDYESASGSGAD [S2-FE, SDC2-mimetic peptide] | – | 456 µM | –
6 | SGVYPIDDDDYDSASGSGAD [S2-D, SDC2-mimetic peptide with an Ala-to-Asp substitution at the C-terminal side of Tyr 51] | – | 550 µM | –
7 | SGVYPIDDDDYASASGSGAD [S2-P, synthetic peptide corresponding to human SDC2 extracellular domain residues 41-60] | – | 1220 µM | –

More lines, main results first:

Row | Kd [1] | Kd [2] | Molecule | other results
8 | 64 µM | – | SGVYPIFDLDYDSASGSGAD [S2-FLD] | –
9 | 550 µM | – | SGVYPIDDDDYDSASGSGAD [S2-D] | cytotoxicity in HCT116 cells (HCT116 cells): did not exert cytotoxicity; cytotoxicity against HT29-SDC2 cells (HT29-SDC2 cells): Neither peptide showed cytotoxicity
10 | – | 64 µM | SGVYPIFDLDYDSASGSGAD [S2-FLD, SDC2-mimetic peptide] | –
